Assay results from patent publication US20250018019A1, “TREATMENT OF INTERFERON DRIVEN INFLAMMATION” (The Provost, Fellows, Foundation Scholars and the other …, priority 2023, published 2025).

Experiments:
Assay type in all cases: cell-based, mouse
[1] = system: BMDMs; test: LC-MS steady-state metabolomics / fumarate levels in BMDMs; details: BMDMs, AOAA 5 mM pre-treatment, LPS 4 h
Protocol: (§1) All compounds used DMSO as a vehicle except for 4-hydroxy tamoxifen (EtOH), NAC (PBS), and AOAA for tracing experiments (Media). LPS was used at a concentration of 100 ng/ml for indicated timepoints (2, 3, 4, 6, 8, 24, 48 h). FHIN1 (10 or 20 μM), MMF (50 or 100 μM), DMF (25 μM), AOAA (5 mM), oligomycin (10 μM), CCCP (50 μM) NAC (1 mM), and IMT1 (10 μM) pre-treatments were performed for 3 h prior the addition of LPS. Cells were treated with valinomycin (10 nM) 15 mins before LPS stimulation. Anti-CD210 or IgG control (10 μg/ml) antibodies were added to cells 1 h prior to LPS stimulation. Recombinant mouse IL-10 protein (100 ng/ml) was added to cells at the same time as LPS. Cells were treated with IFN-B1 (220 ng/ml) for 3 h. Cells were treated with C-178 (1 μM) 1 h prior to LPS stimulation or transfection with 2′3′-cGAMP (1.5 μg/ml) for 4 hrs to achieve cGAS-STING activation. Cells were treated with ODN 2088 (1 μM) for 1 hr prior to LPS stimulation or transfection with CPG ODN 1826 (1.5 μg/ml) to achieve TLR9 activation. 3 different timepoints of 4-hydroxy tamoxifen (TAM) (600 nM or 2 μM) or EtOH treatment were performed-these are specified in the individual figure legends. For ‘48 h’ treatments EtOH/TAM was added on day 5 of 6 during the BMDM differentiation protocol. On day 6 they were plated with EtOH/TAM (left overnight) and treated the following day. For ‘72 h’ treatments EtOH/TAM was added on day […] of 6 during the BMDM differentiation protocol. On day 6 they were plated with EtOH/TAM (left overnight) and treated the following day. For ‘96 h’ treatments EtOH/TAM was added on day […] of 6 during the BMDM differentiation protocol. On day 6 they were plated with EtOH/TAM and treated 2 days later.
BMDMs (3 independent mice) were plated at 0.5×10^6 cells/well in 12-well plates in technical triplicate per condition, treated as indicated, snap frozen and stored at −80° C. For metabolomics on cytosolic fraction, BMDMs were plated at 10×10^6 cells/10 cm dish and rapid fractionation was performed as previously reported^16. Metabolite extraction solution (MES) (methanol/acetonitrile/water, 50:30:20 v/v/v) was added (0.5 mL per 1×10^6 cells) and samples were incubated for 15 min on dry ice. The resulting suspension was transferred to ice-cold microcentrifuge tubes. Samples were agitated for 20 min at 4° C. in a thermomixer and then incubated at −20° C. for 1 h. Samples were centrifuged at maximum speed for 10 min at 4° C. The supernatant was transferred into a new tube and centrifuged again at maximum speed for 10 min at 4° C. The supernatant was transferred to autosampler vials and stored at −80° C. prior to analysis by LC-MS.
HILIC chromatographic separation of metabolites was achieved using a Millipore Sequant ZIC-PHILIC analytical column (5 μm, 2.1×150 mm) equipped with a 2.1×20 mm guard column (both […] particle size) with a binary solvent system. Solvent A was 20 mM ammonium carbonate, 0.05% ammonium hydroxide; Solvent B was acetonitrile. The column oven and autosampler tray were held at 40° C. and 4° C., respectively. The chromatographic gradient was run at a flow rate of 0.200 mL/min as follows: 0-2 min: 80% B; 2-17 min: linear gradient from 80% B to 20% B; 17-17.1 min: linear gradient from 20% B to 80% B; 17.1-22.5 min: hold at 80% B. Samples were randomized and analysed with LC-MS in a blinded manner and the injection volume was 5 μl. Pooled samples were generated from an equal mixture of all individual samples and analysed interspersed at regular intervals within sample sequence as a quality control. Metabolites were measured with a Thermo Scientific Q Exactive Hybrid Quadrupole-Orbitrap Mass spectrometer (HRMS) coupled to a Dionex Ultimate 3000 UHPLC or with Vanquish Horizon UHPLC coupled to an Orbitrap Exploris 240 mass spectrometer (both Thermo Fisher Scientific) via a heated electrospray ionization source. […]

[2] = system: BMDMs; test: Stable isotope-assisted tracing (15N2-glutamine) in BMDMs; details: 15N2-glutamine tracing, LPS-treated BMDMs, LPS 4 h
Protocol: All compounds used DMSO as a vehicle except for 4-hydroxy tamoxifen (EtOH), NAC (PBS), and AOAA for tracing experiments (Media). LPS was used at a concentration of 100 ng/ml for indicated timepoints (2, 3, 4, 6, 8, 24, 48 h). FHIN1 (10 or 20 μM), MMF (50 or 100 μM), DMF (25 μM), AOAA (5 mM), oligomycin (10 μM), CCCP (50 μM) NAC (1 mM), and IMT1 (10 μM) pre-treatments were performed for 3 h prior the addition of LPS. Cells were treated with valinomycin (10 nM) 15 mins before LPS stimulation. Anti-CD210 or IgG control (10 μg/ml) antibodies were added to cells 1 h prior to LPS stimulation. Recombinant mouse IL-10 protein (100 ng/ml) was added to cells at the same time as LPS. Cells were treated with IFN-B1 (220 ng/ml) for 3 h. Cells were treated with C-178 (1 μM) 1 h prior to LPS stimulation or transfection with 2′3′-cGAMP (1.5 μg/ml) for 4 hrs to achieve cGAS-STING activation. […]
BMDMs (3 independent mice) were plated at 0.5×10^6 cells/well in 12-well plates in technical triplicate per condition, treated as indicated in glutamine-free DMEM supplemented with U-^13C-glutamine or ^15N2-glutamine, respectively. For ^13C- and ^15N-tracing analysis, the theoretical masses of ^13C and ^15N isotopes were calculated and added to a library of predicted isotopes in Tracefinder 5.0. […]

[3] = system: BMDMs; test: ELISA of cytokine release from BMDMs; details: BMDMs pre-treated 3 h, LPS 4 h
Protocol: as §1
Pre-designed silencer select siRNAs for Cgas (s103166), Tmem173 (s91058), Tlr3 (s100579), Tlr9 (s96268), As/(s99640), Tlr7 (s100720), Ddx58 (s106376), Ifih1 (s89787), Nrf2 (s70522), Atf4 (s62689) and negative control (4390843) were ordered from Thermo Fisher. siRNA sequences are given in Table S2. Cells were transfected with 50 nM siRNA using 5 μl lipofectamine RNAiMAX according to manufacturer's instructions (Thermo Fisher). Cells were transfected in medium without serum and antibiotics which was replaced with complete medium 8 hours later. Cells were subsequently left for at least a further 12 hours prior to treatment.
BMDMs were plated in the presence or absence of ultrapure ethidium bromide (100 ng/ml) and incubated for a further 6 days prior to treatment. Depletion of mtDNA was determined by genomic DNA isolation followed by qPCR using primers specific for areas of mitochondrial DNA (D-loop) and areas of mtDNA that are not inserted into nuclear DNA (Non-NUMT).
DuoSet ELISA kits for IL-1β, TNFα, IL-6, IL-10, and GDF15 were purchased from R&D Systems and were carried out according to the manufacturer's instructions with appropriately diluted cell supernatants added to each plate in duplicate or triplicate. IFN-β was determined using DuoSet ELISA kit from R&D Systems or Abcam (ab252363). Quantikine ELISA kit for IFN-β (R&D Systems) was used for determination of IFN-β concentration in serum samples and from human cells, and these were also carried out according to the manufacturer's instructions. Absorbance at 450 nm was quantified using a FLUOstar Optima plate reader. Corrected absorbance values were calculated by subtracting the background absorbance, and cytokine concentrations were subsequently obtained by extrapolation from a standard curve plotted on GraphPad Prism 9.2.0.

NOCC(=O)O [AOAA, aminooxyacetic acid]
aspartate, asparagine, argininosuccinate levels following LPS stimulation [1]: reduced
fumarate levels following LPS stimulation [1]: reduced
contribution of glutamine nitrogen to aspartate, asparagine, arginine and citrulline [2]: completely prevented
IL-10 release [3]: modestly increased
TNF-α release [3]: reduced
